According to ChEMBL document CHEMBL1201862, “PubChem BioAssay data set” (2004):
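Compound exposure: 48 hours, 5 concentrations, 96-well plates. The concentration for 50% growth inhibition is given as GI50.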 Active and inactive are the calls of the source. No stated cut-off is given here; in the data, active = GI50 up to about 1.1 µM and inactive = higher.

Columns and labels:
Experiment in all cases: growth of human tumour cells (NCI), 48 h
SK-MEL-28 = test system: SK-MEL-28
CCRF-CEM = test system: CCRF-CEM
M14 = test system: M14
OVCAR-4 = test system: OVCAR-4
NCI-H522 = test system: NCI-H522
OVCAR-8 = test system: OVCAR-8
SF-268 = test system: SF-268
OVCAR-5 = test system: OVCAR-5
SW-620 = test system: SW-620
SNB-19 = test system: SNB-19
NCI/ADR-RES = test system: NCI/ADR-RES
SK-MEL-2 = test system: SK-MEL-2
PC-3 = test system: PC-3
IGROV-1 = test system: IGROV-1
DU-145 = test system: DU-145
COLO 205 = test system: COLO 205
MDA-MB-435 = test system: MDA-MB-435
786-0 = test system: 786-0
K562 = test system: K562
RPMI-8226 = test system: RPMI-8226

SMILES	GI50 (SK-MEL-28)	GI50 (CCRF-CEM)	GI50 (M14)	GI50 (OVCAR-4)	GI50 (NCI-H522)	GI50 (OVCAR-8)	GI50 (SF-268)	GI50 (OVCAR-5)	GI50 (SW-620)	GI50 (SNB-19)	GI50 (NCI/ADR-RES)	GI50 (SK-MEL-2)	GI50 (PC-3)	GI50 (IGROV-1)	GI50 (DU-145)	GI50 (COLO 205)	GI50 (MDA-MB-435)	GI50 (786-0)	GI50 (K562)	GI50 (RPMI-8226)
CC(C)CNCCc1ccccn1	> 100 µM (inactive)	> 100 µM (inactive)	> 100 µM (inactive)	> 100 µM (inactive)	> 100 µM (inactive)	> 100 µM (inactive)	> 100 µM (inactive)	> 100 µM (inactive)	> 100 µM (inactive)	> 100 µM (inactive)	> 100 µM (inactive)	> 100 µM (inactive)	> 100 µM (inactive)	> 100 µM (inactive)	> 100 µM (inactive)	> 100 µM (inactive)	> 100 µM (inactive)	> 100 µM (inactive)	–	–
Cc1cnc(/C=N\NC(N)=S)c2cccc(N)c12	3.27 µM (inactive)	0.278 µM (active)	–	1.95 µM (inactive)	0.871 µM (active)	0.838 µM (active)	0.565 µM (active)	5.46 µM (inactive)	3.01 µM (inactive)	1.3 µM (inactive)	1.84 µM (inactive)	2.1 µM (inactive)	2.27 µM (inactive)	1.75 µM (inactive)	0.411 µM (active)	1.4 µM (inactive)	1.48 µM (inactive)	–	0.881 µM (active)	0.714 µM (active)
CC(NC(=O)C(Cc1ccc(OC(=O)c2ccccc2)cc1)NC(=O)OC(C)(C)C)C(=O)NCC(=O)NC(Cc1ccccc1)NC(=O)OCc1ccccc1 (stereo not given)	> 100 µM (inactive)	–	> 100 µM (inactive)	15.8 µM (inactive)	> 100 µM (inactive)	> 100 µM (inactive)	> 100 µM (inactive)	> 100 µM (inactive)	> 100 µM (inactive)	> 100 µM (inactive)	> 10 µM (inactive)	–	> 100 µM (inactive)	> 100 µM (inactive)	> 100 µM (inactive)	> 100 µM (inactive)	> 100 µM (inactive)	> 100 µM (inactive)	> 100 µM (inactive)	50.6 µM (inactive)
COC(OC)C1OC(CO)C(n2cc(F)c(=O)[nH]c2=O)C1O (stereo not given)	> 100 µM (inactive)	> 100 µM (inactive)	> 100 µM (inactive)	> 100 µM (inactive)	> 100 µM (inactive)	> 100 µM (inactive)	> 100 µM (inactive)	> 100 µM (inactive)	> 100 µM (inactive)	> 100 µM (inactive)	> 100 µM (inactive)	> 100 µM (inactive)	> 100 µM (inactive)	> 100 µM (inactive)	21.4 µM (inactive)	10.7 µM (inactive)	> 100 µM (inactive)	–	> 100 µM (inactive)	> 100 µM (inactive)
CCCNc1[nH]c(C(=O)c2ccccc2)c(N)c1C(=S)Nc1ccccc1	> 100 µM (inactive)	> 100 µM (inactive)	> 100 µM (inactive)	> 100 µM (inactive)	> 100 µM (inactive)	> 100 µM (inactive)	> 100 µM (inactive)	> 100 µM (inactive)	> 100 µM (inactive)	> 100 µM (inactive)	> 100 µM (inactive)	> 100 µM (inactive)	> 100 µM (inactive)	> 100 µM (inactive)	> 100 µM (inactive)	> 100 µM (inactive)	> 100 µM (inactive)	> 100 µM (inactive)	> 100 µM (inactive)	–
CC1CCc2c(c(CC3CC(=O)NC(=O)C3)nn2-c2ccccc2)C1 (stereo not given)	> 100 µM (inactive)	> 100 µM (inactive)	> 100 µM (inactive)	> 100 µM (inactive)	–	93.8 µM (inactive)	> 100 µM (inactive)	> 100 µM (inactive)	> 100 µM (inactive)	> 100 µM (inactive)	75.2 µM (inactive)	> 100 µM (inactive)	> 100 µM (inactive)	> 100 µM (inactive)	> 100 µM (inactive)	> 100 µM (inactive)	> 100 µM (inactive)	> 100 µM (inactive)	> 100 µM (inactive)	80.5 µM (inactive)
Cc1ccc(C)c(COCCOCn2ccc(N)nc2=O)c1	> 100 µM (inactive)	0.785 µM (active)	> 100 µM (inactive)	–	> 100 µM (inactive)	> 100 µM (inactive)	> 100 µM (inactive)	> 100 µM (inactive)	> 100 µM (inactive)	> 100 µM (inactive)	> 100 µM (inactive)	> 100 µM (inactive)	> 100 µM (inactive)	> 100 µM (inactive)	> 100 µM (inactive)	> 100 µM (inactive)	> 100 µM (inactive)	> 100 µM (inactive)	> 100 µM (inactive)	–
O=c1[nH]nc(-c2ccccc2)n1-c1ccncc1	> 100 µM (inactive)	> 100 µM (inactive)	> 100 µM (inactive)	> 100 µM (inactive)	> 100 µM (inactive)	> 100 µM (inactive)	> 100 µM (inactive)	> 100 µM (inactive)	> 100 µM (inactive)	> 100 µM (inactive)	> 100 µM (inactive)	–	> 100 µM (inactive)	> 100 µM (inactive)	> 100 µM (inactive)	> 100 µM (inactive)	> 100 µM (inactive)	> 100 µM (inactive)	> 100 µM (inactive)	> 100 µM (inactive)
Nc1ccc2c(c1)C1Oc3ccccc3CC1CO2 (stereo not given)	–	> 100 µM (inactive)	> 100 µM (inactive)	–	> 100 µM (inactive)	> 100 µM (inactive)	> 100 µM (inactive)	> 100 µM (inactive)	> 100 µM (inactive)	–	> 100 µM (inactive)	> 100 µM (inactive)	> 100 µM (inactive)	> 100 µM (inactive)	> 100 µM (inactive)	> 100 µM (inactive)	> 100 µM (inactive)	> 100 µM (inactive)	> 100 µM (inactive)	> 100 µM (inactive)
CN(CCNC(=S)c1cn(C)c2c1ccc1ccccc12)CCNC(=S)c1cn(C)c2c1ccc1ccccc12	64.4 µM (inactive)	17.9 µM (inactive)	–	11.3 µM (inactive)	51.2 µM (inactive)	> 100 µM (inactive)	74 µM (inactive)	> 100 µM (inactive)	> 100 µM (inactive)	> 100 µM (inactive)	> 100 µM (inactive)	> 100 µM (inactive)	28.6 µM (inactive)	29.4 µM (inactive)	48.2 µM (inactive)	> 100 µM (inactive)	96.8 µM (inactive)	53.6 µM (inactive)	54.8 µM (inactive)	–
CCOc1nc2sc3c(c2c(=O)n1CCSSCCn1c(OCC)nc2sc4c(c2c1=O)CCCC4)CCCC3	> 100 µM (inactive)	–	> 100 µM (inactive)	> 100 µM (inactive)	–	67.8 µM (inactive)	> 100 µM (inactive)	> 100 µM (inactive)	> 100 µM (inactive)	> 100 µM (inactive)	> 100 µM (inactive)	> 100 µM (inactive)	> 100 µM (inactive)	> 100 µM (inactive)	> 100 µM (inactive)	> 100 µM (inactive)	> 100 µM (inactive)	> 100 µM (inactive)	> 100 µM (inactive)	> 100 µM (inactive)
COc1cc(Br)c(CC2C3=C(CCN2C(=O)C2CCC2)CC(=O)CC3)cc1O (stereo not given)	46.7 µM (inactive)	25.5 µM (inactive)	33.4 µM (inactive)	–	14.5 µM (inactive)	38 µM (inactive)	31.3 µM (inactive)	> 100 µM (inactive)	34.6 µM (inactive)	51.2 µM (inactive)	27.5 µM (inactive)	36.1 µM (inactive)	30.7 µM (inactive)	36.3 µM (inactive)	49.4 µM (inactive)	19.5 µM (inactive)	17.1 µM (inactive)	26.5 µM (inactive)	21.6 µM (inactive)	32.7 µM (inactive)
Nc1ccc2[nH]c(C(=O)N3CC(CCl)c4c3cc(N)c3ccccc43)cc2c1 (stereo not given)	0.013 µM (active)	< 0.01 µM (active)	0.0107 µM (active)	< 0.01 µM (active)	–	< 0.01 µM (active)	< 0.01 µM (active)	< 0.01 µM (active)	< 0.01 µM (active)	< 0.0138 µM (active)	< 0.01 µM (active)	< 0.01 µM (active)	< 0.01 µM (active)	< 0.01 µM (active)	< 0.01 µM (active)	0.0101 µM (active)	0.011 µM (active)	< 0.01 µM (active)	< 0.01 µM (active)	< 0.0108 µM (active)
O=C1C(Cl)=C(N2C(=O)CCC2=O)C(=O)c2ccccc21	20.4 µM (inactive)	2.62 µM (inactive)	45.7 µM (inactive)	–	17.8 µM (inactive)	37.1 µM (inactive)	40.1 µM (inactive)	20.4 µM (inactive)	23.1 µM (inactive)	52.6 µM (inactive)	89.3 µM (inactive)	39.8 µM (inactive)	53.2 µM (inactive)	44.4 µM (inactive)	32.7 µM (inactive)	15.2 µM (inactive)	19.8 µM (inactive)	18.7 µM (inactive)	2.83 µM (inactive)	–
Nc1n[nH]c2nc3ccccc3nc12 [QUINOXALINE1]	> 100 µM (inactive)	34.4 µM (inactive)	–	> 100 µM (inactive)	44.1 µM (inactive)	> 100 µM (inactive)	66.4 µM (inactive)	38 µM (inactive)	86.7 µM (inactive)	> 100 µM (inactive)	> 100 µM (inactive)	> 100 µM (inactive)	> 100 µM (inactive)	18.1 µM (inactive)	63.5 µM (inactive)	61.8 µM (inactive)	> 100 µM (inactive)	–	> 100 µM (inactive)	36.1 µM (inactive)
